# Measured values from paper PMC5218480 (PLoS ONE, 2017).
# System: MV-4-11 cells
# Assay: Gene expression microarray analysis (Affymetrix PrimeView) and GSEA
# Assay type: cell-based, human
# Design: RFU PODN (11730768_x_at) / Fold change /veh PODN (11730768_x_at) / RFU LINC00158 (11744669_a_at) / Fold change /veh LINC00158 (11744669_a_at) / RFU DUSP10 (11751237_a_at) / Fold change /veh DUSP10 (11751237_a_at) / RFU ID3 (11757404_x_at) / Fold change /veh ID3 (11757404_x_at) / RFU PLEKHG5 (11737974_s_at) / Fold change /veh PLEKHG5 (11737974_s_at) / RFU LRRC4B (11730491_at) / Fold change /veh LRRC4B (11730491_at) / RFU GIMAP4 (11747438_a_at) / Fold change /veh GIMAP4 (11747438_a_at) / RFU KRT8 (11758183_x_at) / Fold change /veh KRT8 (11758183_x_at) / RFU CNN1 (11734310_a_at) / Fold change /veh CNN1 (11734310_a_at) / RFU VPS37D (11726825_at) / Fold change /veh VPS37D (11726825_at) / RFU C10orf10 (11716522_x_at) / Fold change /veh C10orf10 (11716522_x_at) / RFU KIR2DL2 /// KIR2DL4 /// KIR2DL5A /// KIR2DL5B /// KIR2DS1 /// KIR2DS2 /// KIR2DS3 /// KIR2DS4 /// KIR3DL3 /// KIR3DL3 /// KIR3DS1 (11738374_at) / Fold change /veh KIR2DL2 /// KIR2DL4 /// KIR2DL5A /// KIR2DL5B /// KIR2DS1 /// KIR2DS2 /// KIR2DS3 /// KIR2DS4 /// KIR3DL3 /// KIR3DL3 /// KIR3DS1 (11738374_at) / RFU C1QL1 (11718748_at) / Fold change /veh C1QL1 (11718748_at) / RFU TMPRSS4 (11747572_a_at) / Fold change /veh TMPRSS4 (11747572_a_at) / RFU HAMP (11756126_x_at) / Fold change /veh HAMP (11756126_x_at) / RFU RNFT2 (11725882_a_at) / Fold change /veh RNFT2 (11725882_a_at) / RFU NR4A2 (11747474_a_at) / Fold change /veh NR4A2 (11747474_a_at) / RFU ABCC12 (11746883_a_at) / Fold change /veh ABCC12 (11746883_a_at) / RFU TMEM136 (11760407_x_at) / Fold change /veh TMEM136 (11760407_x_at) / RFU CLDN22 /// WWC2 (11732394_at) / Fold change /veh CLDN22 /// WWC2 (11732394_at) / RFU HLA-DPB1 (11760878_x_at) / Fold change /veh HLA-DPB1 (11760878_x_at) / RFU SPINT1 (11716480_a_at) / Fold change /veh SPINT1 (11716480_a_at) / RFU GAP43 (11754022_s_at) / Fold change /veh GAP43 (11754022_s_at) / RFU A4GNT (11735810_at) / Fold change /veh A4GNT (11735810_at) / RFU PRB3 (11715151_x_at) / Fold change /veh PRB3 (11715151_x_at) / RFU TUBB4B (11761932_at) / Fold change /veh TUBB4B (11761932_at) / RFU CAPN14 (11732068_a_at) / Fold change /veh CAPN14 (11732068_a_at) / RFU TMCC2 (11721928_a_at) / Fold change /veh TMCC2 (11721928_a_at) / RFU IRGQ (11745062_a_at) / Fold change /veh IRGQ (11745062_a_at) / RFU FAM174B (11720279_a_at) / Fold change /veh FAM174B (11720279_a_at) / RFU TMPRSS4 (11748680_a_at) / Fold change /veh TMPRSS4 (11748680_a_at) / RFU FAM212B (11763350_a_at) / Fold change /veh FAM212B (11763350_a_at) / RFU PLEKHG5 (11743358_a_at) / Fold change /veh PLEKHG5 (11743358_a_at) / RFU ZSCAN30 (11745921_a_at) / Fold change /veh ZSCAN30 (11745921_a_at) / RFU CMKLR1 (11741424_a_at) / Fold change /veh CMKLR1 (11741424_a_at) / RFU LOC101060620 /// MAPK8IP1 (11723275_at) / Fold change /veh LOC101060620 /// MAPK8IP1 (11723275_at) / RFU SPTSSB (11747773_x_at) / Fold change /veh SPTSSB (11747773_x_at) / RFU PRSS12 (11739890_at) / Fold change /veh PRSS12 (11739890_at) / RFU BIN1 (11741810_x_at) / Fold change /veh BIN1 (11741810_x_at) / RFU WNT11 (11732464_a_at) / Fold change /veh WNT11 (11732464_a_at) / RFU C10orf10 (11716521_a_at) / Fold change /veh C10orf10 (11716521_a_at) / RFU C5orf56 (11738089_at) / Fold change /veh C5orf56 (11738089_at) / RFU CYB561 (11721691_x_at) / Fold change /veh CYB561 (11721691_x_at) / RFU ANKRD19P (11752326_a_at) / Fold change /veh ANKRD19P (11752326_a_at) / RFU OR2T12 /// OR2T33 /// OR2T8 (11738714_s_at) / Fold change /veh OR2T12 /// OR2T33 /// OR2T8 (11738714_s_at) / RFU VCAN (11748164_a_at) / Fold change /veh VCAN (11748164_a_at) / RFU JSRP1 (11732532_at) / Fold change /veh JSRP1 (11732532_at) / RFU KRTAP10-11 (11738290_x_at) / Fold change /veh KRTAP10-11 (11738290_x_at) / RFU MYO3A (11730013_a_at) / Fold change /veh MYO3A (11730013_a_at) / RFU EBF3 (11725865_a_at) / Fold change /veh EBF3 (11725865_a_at) / RFU CAMK2N1 (11719241_x_at) / Fold change /veh CAMK2N1 (11719241_x_at) / RFU C5orf56 (11738088_a_at) / Fold change /veh C5orf56 (11738088_a_at) / RFU OLFML3 (11715873_a_at) / Fold change /veh OLFML3 (11715873_a_at) / RFU LOC100653217 /// NTM (11731650_a_at) / Fold change /veh LOC100653217 /// NTM (11731650_a_at) / RFU MAPK11 (11762145_a_at) / Fold change /veh MAPK11 (11762145_a_at) / RFU FIZ1 (11724087_x_at) / Fold change /veh FIZ1 (11724087_x_at) / RFU OASL (11726364_x_at) / Fold change /veh OASL (11726364_x_at) / RFU SOX15 (11748057_x_at) / Fold change /veh SOX15 (11748057_x_at) / RFU CD79A (11719716_a_at) / Fold change /veh CD79A (11719716_a_at) / RFU HIST1H1D (11736915_at) / Fold change /veh HIST1H1D (11736915_at) / RFU CASKIN2 (11723855_a_at) / Fold change /veh CASKIN2 (11723855_a_at) / RFU LOC730098 (11760151_x_at) / Fold change /veh LOC730098 (11760151_x_at) / RFU OR4N2 (11742367_at) / Fold change /veh OR4N2 (11742367_at) / RFU PRRT2 (11749266_a_at) / Fold change /veh PRRT2 (11749266_a_at) / RFU SNX32 (11753110_a_at) / Fold change /veh SNX32 (11753110_a_at) / RFU CDHR5 (11726645_a_at) / Fold change /veh CDHR5 (11726645_a_at) / RFU RCAN1 (11760418_a_at) / Fold change /veh RCAN1 (11760418_a_at) / RFU FAM167A (11723789_a_at) / Fold change /veh FAM167A (11723789_a_at) / RFU FAM26E (11764081_at) / Fold change /veh FAM26E (11764081_at) / RFU ISYNA1 (11749810_s_at) / Fold change /veh ISYNA1 (11749810_s_at) / RFU ACY1 (11761880_at) / Fold change /veh ACY1 (11761880_at) / RFU 11764098_at / Fold change /veh 11764098_at / RFU SAMD14 (11745864_x_at) / Fold change /veh SAMD14 (11745864_x_at) / RFU NPB (11741838_a_at) / Fold change /veh NPB (11741838_a_at) / RFU TMPRSS6 (11731388_a_at) / Fold change /veh TMPRSS6 (11731388_a_at) / RFU KRTAP10-2 (11738614_at) / Fold change /veh KRTAP10-2 (11738614_at) / RFU ARHGAP8 /// PRR5-ARHGAP8 (11727945_x_at) / Fold change /veh ARHGAP8 /// PRR5-ARHGAP8 (11727945_x_at) / RFU KRTAP5-7 /// NADSYN1 (11734609_at) / Fold change /veh KRTAP5-7 /// NADSYN1 (11734609_at) / RFU RASL12 (11751679_a_at) / Fold change /veh RASL12 (11751679_a_at) / RFU CDKN2B (11736163_a_at) / Fold change /veh CDKN2B (11736163_a_at) / RFU PRF1 (11729649_at) / Fold change /veh PRF1 (11729649_at) / RFU, ZNF638 /// ZNF638-IT1 / Fold change vs veh, ZNF638 /// ZNF638-IT1 / RFU, PANK3 / Fold change vs veh, PANK3 / RFU, SH3YL1 / Fold change vs veh, SH3YL1 / RFU, ZEB2 / Fold change vs veh, ZEB2 / RFU, NRIP1 / Fold change vs veh, NRIP1 / RFU, PTTG1IP / Fold change vs veh, PTTG1IP / RFU, CAPN2 / Fold change vs veh, CAPN2 / RFU, MED14 / Fold change vs veh, MED14 / RFU, SNORA58 / Fold change vs veh, SNORA58 / RFU, C1orf63 / Fold change vs veh, C1orf63 / RFU, LRRFIP1 / Fold change vs veh, LRRFIP1 / RFU, NDUFAF7 / Fold change vs veh, NDUFAF7 / RFU, SLC12A2 / Fold change vs veh, SLC12A2 / RFU, IBTK / Fold change vs veh, IBTK / RFU, ESF1 / Fold change vs veh, ESF1 / Fold change vs veh, TMEM50B / RFU, TAOK1 / Fold change vs veh, TAOK1 / RFU, ACBD3 / Fold change vs veh, ACBD3 / RFU, TMA16 / Fold change vs veh, TMA16 / RFU, RWDD3 / Fold change vs veh, RWDD3 / RFU, BCAT1 / Fold change vs veh, BCAT1 / RFU, EDEM3 / Fold change vs veh, EDEM3 / RFU, TMEM33 / Fold change vs veh, TMEM33 / RFU, WDR75 / Fold change vs veh, WDR75 / RFU, AHCTF1 / Fold change vs veh, AHCTF1 / RFU, TFRC / Fold change vs veh, TFRC / RFU, ZDHHC17 / Fold change vs veh, ZDHHC17 / RFU, NOM1 / Fold change vs veh, NOM1 / RFU, ARL8B / Fold change vs veh, ARL8B / RFU, ZBTB11 / Fold change vs veh, ZBTB11 / RFU, TAMM41 / Fold change vs veh, TAMM41 / RFU, KIAA1704 /// LOC100996395 / Fold change vs veh, KIAA1704 /// LOC100996395 / RFU, ING1 / Fold change vs veh, ING1 / RFU, TRMT61B / Fold change vs veh, TRMT61B / RFU, FUBP3 / Fold change vs veh, FUBP3 / RFU, TP53 / Fold change vs veh, TP53 / RFU, TNKS2 / Fold change vs veh, TNKS2 / RFU, ZFP14 / Fold change vs veh, ZFP14 / RFU, ACTR2 / Fold change vs veh, ACTR2 / RFU, PPP3R1 / Fold change vs veh, PPP3R1 / RFU, PIK3R1 / Fold change vs veh, PIK3R1 / RFU, HNRNPA1 / Fold change vs veh, HNRNPA1 / RFU, RNF170 / Fold change vs veh, RNF170 / RFU, ZNF28 / Fold change vs veh, ZNF28 / RFU, RNGTT / Fold change vs veh, RNGTT / RFU, OGT / Fold change vs veh, OGT / RFU, BRD1 / Fold change vs veh, BRD1 / RFU, MARS / Fold change vs veh, MARS / RFU, ZNF655 / Fold change vs veh, ZNF655 / RFU, FAHD1 / Fold change vs veh, FAHD1 / RFU, BDP1 / Fold change vs veh, BDP1 / RFU, LRRCC1 / Fold change vs veh, LRRCC1 / RFU, ARID1A / Fold change vs veh, ARID1A / RFU, ZNF146 / Fold change vs veh, ZNF146 / RFU, ZNF330 / Fold change vs veh, ZNF330 / RFU, GPN3 / Fold change vs veh, GPN3 / RFU, C9orf123 / Fold change vs veh, C9orf123 / RFU, N4BP2L2 / Fold change vs veh, N4BP2L2 / RFU, ARFIP1 / Fold change vs veh, ARFIP1 / RFU, FAM179B / Fold change vs veh, FAM179B / RFU, BCL10 / Fold change vs veh, BCL10 / RFU, UHRF1BP1L / Fold change vs veh, UHRF1BP1L / RFU, BET1 / Fold change vs veh, BET1 / RFU, CNOT2 / Fold change vs veh, CNOT2 / RFU, ZNF268 / Fold change vs veh, ZNF268 / Fold change vs veh, ZNF507 / RFU, DGCR2 / Fold change vs veh, DGCR2 / RFU, WDSUB1 / Fold change vs veh, WDSUB1 / Fold change vs veh, HSP90B1 /// MIR3652 / RFU, ADSS / Fold change vs veh, ADSS / RFU, GK / Fold change vs veh, GK / RFU, ZNF148 / Fold change vs veh, ZNF148 / RFU, TAF9 / Fold change vs veh, TAF9 / RFU, SLC1A5 / Fold change vs veh, SLC1A5 / RFU, SLMO2 / Fold change vs veh, SLMO2 / RFU, ABCC4 / Fold change vs veh, ABCC4 / RFU, LOC101060439 /// RAP1B / Fold change vs veh, LOC101060439 /// RAP1B / RFU, RFX7 / Fold change vs veh, RFX7 / RFU, GTPBP10 / Fold change vs veh, GTPBP10 / RFU, CNEP1R1 / Fold change vs veh, CNEP1R1 / RFU, BIVM-ERCC5 /// ERCC5 / Fold change vs veh, BIVM-ERCC5 /// ERCC5 / RFU, ILF3 / Fold change vs veh, ILF3 / RFU 11762660_at / Fold change /veh 11762660_at / RFU VCAN (11757783_s_at) / Fold change /veh VCAN (11757783_s_at) / RFU DDX43 (11728927_at) / Fold change /veh DDX43 (11728927_at) / RFU KRT8 (11758188_x_at) / Fold change /veh KRT8 (11758188_x_at) / RFU NKD1 (11759106_at) / Fold change /veh NKD1 (11759106_at) / RFU SRD5A1 (11742802_a_at) / Fold change /veh SRD5A1 (11742802_a_at) / RFU TPSAB1 /// TPSB2 (11721975_s_at) / Fold change /veh TPSAB1 /// TPSB2 (11721975_s_at) / RFU GSTM3 (11746129_a_at) / Fold change /veh GSTM3 (11746129_a_at) / RFU IL23R (11737362_x_at) / Fold change /veh IL23R (11737362_x_at) / RFU TMEM51 (11727254_a_at) / Fold change /veh TMEM51 (11727254_a_at) / RFU PIWIL2 (11732686_x_at) / Fold change /veh PIWIL2 (11732686_x_at) / RFU ORM1 (11744905_x_at) / Fold change /veh ORM1 (11744905_x_at) / RFU CCDC152 (11743942_at) / Fold change /veh CCDC152 (11743942_at) / RFU ECM1 (11717891_a_at) / Fold change /veh ECM1 (11717891_a_at) / RFU IL23R (11748794_a_at) / Fold change /veh IL23R (11748794_a_at) / RFU TNFAIP8L3 (11732012_x_at) / Fold change /veh TNFAIP8L3 (11732012_x_at) / RFU MBOAT4 (11741988_at) / Fold change /veh MBOAT4 (11741988_at) / RFU 11764193_at / Fold change /veh 11764193_at / RFU TMEM53 (11763286_at) / Fold change /veh TMEM53 (11763286_at) / RFU MAGEB2 (11727129_at) / Fold change /veh MAGEB2 (11727129_at) / RFU TMEM200A (11744735_a_at) / Fold change /veh TMEM200A (11744735_a_at) / RFU CCDC152 (11751479_a_at) / Fold change /veh CCDC152 (11751479_a_at) / RFU FAM211A (11726209_a_at) / Fold change /veh FAM211A (11726209_a_at) / RFU RGS16 (11746705_a_at) / Fold change /veh RGS16 (11746705_a_at) / RFU VCAN (11755009_s_at) / Fold change /veh VCAN (11755009_s_at) / RFU RHOB (11743442_s_at) / Fold change /veh RHOB (11743442_s_at) / RFU RGS16 (11720943_a_at) / Fold change /veh RGS16 (11720943_a_at) / RFU RGS16 (11720944_at) / Fold change /veh RGS16 (11720944_at) / RFU, VPS4B / Fold change vs veh, VPS4B / RFU, CREB1 / Fold change vs veh, CREB1 / RFU, DNAJC13 / Fold change vs veh, DNAJC13 / RFU, GNAQ / Fold change vs veh, GNAQ / RFU, CDK5R1 / Fold change vs veh, CDK5R1 / RFU, ZRANB3 / Fold change vs veh, ZRANB3 / RFU, CUL4A / Fold change vs veh, CUL4A / RFU, CCNY / Fold change vs veh, CCNY / RFU, UFL1 / Fold change vs veh, UFL1 / RFU, COG3 / Fold change vs veh, COG3 / RFU, DIAPH2 / Fold change vs veh, DIAPH2 / RFU, SKA2 / Fold change vs veh, SKA2 / RFU, AFF3 / Fold change vs veh, AFF3 / RFU, LMF1 / Fold change vs veh, LMF1 / RFU, IPO11 / Fold change vs veh, IPO11 / RFU, DFFB / Fold change vs veh, DFFB / RFU, FOXP1 / Fold change vs veh, FOXP1 / RFU, CARD8 / Fold change vs veh, CARD8 / RFU, STRN3 / Fold change vs veh, STRN3 / RFU, ADK / Fold change vs veh, ADK / RFU, RASSF2 / Fold change vs veh, RASSF2 / RFU, WIPF1 / Fold change vs veh, WIPF1 / RFU, LARP1B / Fold change vs veh, LARP1B / RFU, RASA1 / Fold change vs veh, RASA1 / RFU, RB1 / Fold change vs veh, RB1 / RFU, PPFIA1 / Fold change vs veh, PPFIA1 / RFU, MAT2A / Fold change vs veh, MAT2A / RFU, CCT5 / Fold change vs veh, CCT5 / RFU, WDR92 / Fold change vs veh, WDR92 / RFU, CUX1 / Fold change vs veh, CUX1 / RFU, TTC7A / Fold change vs veh, TTC7A / RFU, TMEM135 / Fold change vs veh, TMEM135 / RFU, DEPTOR / Fold change vs veh, DEPTOR / RFU, CPM / Fold change vs veh, CPM / RFU, DNAJB6 / Fold change vs veh, DNAJB6 / RFU, CACNA2D3 / Fold change vs veh, CACNA2D3 / RFU, DTX4 / Fold change vs veh, DTX4 / RFU, TFCP2 / Fold change vs veh, TFCP2 / RFU, GMCL1 /// GMCL1P1 / Fold change vs veh, GMCL1 /// GMCL1P1 / RFU, AEBP2 / Fold change vs veh, AEBP2 / RFU, SNHG1 /// SNORD22 /// SNORD25 /// SNORD26 /// SNORD27 /// SNORD28 /// SNORD29 /// SNORD31 / Fold change vs veh, SNHG1 /// SNORD22 /// SNORD25 /// SNORD26 /// SNORD27 /// SNORD28 /// SNORD29 /// SNORD31 / Fold change (Aza/veh), C12orf56 (ProbeSet 11735607_a_at) / Fold change (ACY-1035/veh), C12orf56 (ProbeSet 11735607_a_at) / Fold change (Aza/veh), FGFR1OP (ProbeSet 11751329_s_at) / Fold change (ACY-1035/veh), FGFR1OP (ProbeSet 11751329_s_at) / Fold change (Aza/veh), VPS36 (ProbeSet 11739960_a_at) / Fold change (ACY-1035/veh), VPS36 (ProbeSet 11739960_a_at) / RFU SYPL1 (11715823_x_at) / Fold change /veh SYPL1 (11715823_x_at) / RFU IGFBP7 (11715501_s_at) / Fold change /veh IGFBP7 (11715501_s_at) / RFU REEP3 (11722064_at) / Fold change /veh REEP3 (11722064_at) / RFU IGLL1 (11728026_x_at) / Fold change /veh IGLL1 (11728026_x_at): dose or concentration left out as unconfirmed
# Details: MV-4-11 cells, 48 hours
compound,measurement,value
Nc1ncn([C@@H]2O[C@H](CO)[C@@H](O)[C@H]2O)c(=O)n1 [azacitidine],Fold change /veh FAM26E (11764081_at),0.84
